What all share (format): cell-based
The test system of one experiment is H1437 cells. In words: Cell viability assay (CCK8). The conditions noted are these: three days treatment. The protocol: (§1) This experiment involves treating cells with each of the compounds prepared in Examples 1 to 11, and then observing changes in cell cytotoxicity and cell count. The IC50 values, derived from the changes in cell count, can be used to assess the cancer cell growth inhibition and anti-cancer effects of the compound of the present invention.
(§2) Cells (H596 or H1437 cells) were seeded in a 96-well plate at 3×10^3 cells per well and then cultured for more than 12 hours. After removing the media, each well was treated with 200 μl of the respective diluted compounds prepared in Examples 1 to 11. Three days later, the media was removed, and each well was treated with 10 μl of CCK8 reagent+90 μl of media. After 3-4 hours of reaction, the absorbance was measured using an ELISA reader at a wavelength of 450 nm.

The subject of a further experiment is H596 cells. In words: Cell viability assay (CCK8). The conditions noted are these: three days treatment. The protocol:
as §1, §2

Experiment [1] relates to c-MET (total form). In words: Target protein degradation assay (Western blot). The conditions noted are these: for c-MET degradation H596: H596 cells, Western blot, standard concentration and time 5 μM, 72 hours; for degradation of the target MET protein: H596 or H1437 cells, summary of Table 3. The protocol:
This experiment assessed the tendency and extent of degradation of the target protein c-MET (total form) in cells treated with each of the compounds prepared in Examples 1 to 11.
(§3) Cells (H596 or H1437 cells) were seeded in Φ60 or Φ100 culture dishes to reach 5×10^5 or 1×10^6 cells, and then cultured for more than 12 hours. After removing the media, the cells were treated with each respective compound prepared in Examples 1 to 11 at various conditions-concentrations (0, 2.5, 5, 10 μM), time (0, 6, 8, 24, 48, 72 hours), and standard concentration and time (5 μM, 72 hours) for all compounds. The cells were then harvested, lysed using RIPA buffer, and centrifuged (4° C., 13000 rpm, 15 min), to collect the supernatant in a new tube. Protein quantification was performed using the Bradford Assay, and samples were prepared for loading by boiling at 95° C. Western blotting was performed. The samples were loaded onto an SDS polyacrylamide gel (8% concentration). Electrophoresis was conducted at 80V, and then switched to 100-120V (when the loaded sample moves from the stacking gel to the running gel). After electrophoresis, the polyacrylamide gel was transferred onto the membrane (using transfer buffer diluted at 10× transfer buffer:methanol:D.W=1:2:7 ratio, cold, for 100V, 1 hour or 80V, 2 hours). The membrane was blocked with 5% skim milk for 30 minutes and washed with PBS-T (phosphate-buffered saline with Tween 20) buffer. The primary antibody was diluted in 5% BSA+NaN3 solution and reacted with the membrane for over 12 hours, followed by washing with PBS-T and reaction with 5% skim milk+secondary antibody for 1 hour and 30 minutes. After washing with PBS-T, the ECL solution was reacted with the membrane, and the bands were detected using an imaging device to confirm the degradation of the target protein c-MET.

The test system of experiment [2] is c-MET (total form). The experiment can be described thus: Target protein degradation assay (Western blot). As to conditions: H1437 cells, standard concentration and time 5 μM, 72 hours. The protocol:
as §3, with “After removing the media, the cells were treated with each respective compound prepared in Examples 1 to 11 at various conditions-concentrations (0, 2.5, 5, 10 μM), time (0, 6, 8, 24, 48, 72 hours), and standard concentration and time (5 μM, 72 hours) for all compounds.” left out

Turning to “2,4-dihydroxy-N-({4-[(5-{4-[3-(1-{imidazole[1,2-a]pyridin-6-yl}ethyl)-[1,2,3]triazolo[4,5-b]pyrazin-5-yl]pyrazol-1-yl}-5-oxopentyl) carbamoyl]phenyl}methyl)-5-isopropyl-N-methylbenzamide [OZD-MET 05]”, the results for the IC50 in the experiment with H1437 cells and in the experiment with H596 cells were 5.71 µM and 4.72 µM, respectively. Besides, the “c-MET degradation H596” value in the experiment on c-MET (total form) [1] is 2 (10% < degradation < 50%: 2). Besides, the “c-MET degradation H1437” value in the experiment on c-MET (total form) [2] is given as 2 (10% < degradation < 50%: 2).
Consider `CC(C)c1cc(C(=O)N(C)Cc2cccc(C(=O)NCCOCCOC(=O)N3CCC(n4cc(-c5cnc(N)c(O[C@@H](C)c6c(Cl)ccc(F)c6Cl)c5)cn4)CC3)c2)c(O)cc1O` (stereo in doubt) [OZD-MET 01, 2-{2-[(3-{[1-(2,4-dihydroxy-5-isopropylphenyl)-N-methylformamido]methyl}phenyl)formamido]ethoxy}ethyl 4-(4-{6-amino-5-[1-(2,6-dichloro-3-fluorophenyl)ethoxy]pyridin-3-yl}pyrazol-1-yl)piperidine-1-carboxylate], for which the 50% inhibitory concentration (IC50) stood at 3.5 µM in the experiment on H1437 cells (Homo sapiens, NCI-H1437, 72 h) and 3.07 µM in the experiment on H596 cells (Homo sapiens, NCI-H596, 72 h). Moreover, the “c-MET degradation H596” value in the experiment on c-MET (total form) [1] is given as 1 (50% < degradation: 1). Further, the “c-MET degradation H1437” value in the experiment with c-MET (total form) [2] was 1 (50% < degradation: 1).
With `CC(C)c1cc(C(=O)N(C)Cc2ccc(C(=O)NCCCCC(=O)N3CCC(n4cc(-c5cnc(N)c(O[C@@H](C)c6c(Cl)ccc(F)c6Cl)c5)cn4)CC3)cc2)c(O)cc1O` (stereo in doubt) [OZD-MET 03, N-{[4-({5-[4-(4-{6-amino-5-[1-(2,6-dichloro-3-fluorophenyl)ethoxy]pyridine-3-yl}pyrazol-1-yl)piperidin-1-yl]-5-oxopentyl}carbamoyl)phenyl]methyl}-2,4-dihydroxy-5-isopropyl-N-methylbenzamide], the IC50 with H1437 cells (Homo sapiens, NCI-H1437, 72 h) turned out to be 2.64 µM; with H596 cells (Homo sapiens, NCI-H596, 72 h) it was 1.97 µM. In addition, the “c-MET degradation H596” value with c-MET (total form) [1] is on record as 1 (50% < degradation: 1). In addition, in the experiment on c-MET (total form) [2], the “c-MET degradation H1437” value is given as 1 (50% < degradation: 1).
For `CC(C)c1cc(C(=O)N(C)Cc2cccc(C(=O)O)c2)c(O)cc1O` [Compound (d), reference compound], in the experiment on c-MET (total form) [1], the “c-MET degradation H596” value is “No degradation” and the “degradation of the target MET protein” value is given as “no degradation”. Also, the “c-MET degradation H1437” value with c-MET (total form) [2] is “No degradation”.
Consider `CC(C)c1cc(C(=O)N(C)Cc2ccc(C(=O)O)cc2)c(O)cc1O` [Compound (i), reference compound], for which, in the experiment with c-MET (total form) [1], the “c-MET degradation H596” value is given as “No degradation” and the “degradation of the target MET protein” value is recorded as “no degradation”. For the same compound, the “c-MET degradation H1437” value in the experiment with c-MET (total form) [2] is reported as “No degradation”.
Take `C[C@@H](Oc1cc(-c2cnn(C3CCNCC3)c2)cnc1N)c1c(Cl)ccc(F)c1Cl` [Crizotinib, reference compound]: in the experiment with H1437 cells (Homo sapiens, NCI-H1437, 72 h), the IC50 worked out at 31.9 µM. In the experiment with H596 cells (Homo sapiens, NCI-H596, 72 h), this compound returned a concentration for half-maximal inhibition (IC50) of 20.3 µM. Further, in the experiment on c-MET (total form) [1], the “c-MET degradation H596” value was “No degradation” and the “degradation of the target MET protein” value was “no degradation”.
Regarding `CC(C)c1cc(C(=O)N(C)Cc2ccc(C(=O)NCCOCCOC(=O)N3CCC(n4cc(-c5cnc(N)c(O[C@@H](C)c6c(Cl)ccc(F)c6Cl)c5)cn4)CC3)cc2)c(O)cc1O` [OZD-MET 02], the IC50 came out at 4.06 µM with H1437 cells (Homo sapiens, NCI-H1437, 72 h) and 2.59 µM in the experiment with H596 cells (Homo sapiens, NCI-H596, 72 h). The “c-MET degradation H596” value in the experiment on c-MET (total form) [1] is listed as 1 (50% < degradation: 1). For the same compound, the “c-MET degradation H1437” value in the experiment with c-MET (total form) [2] was 1 (50% < degradation: 1).
As to `CC(C)c1cc(C(=O)N(C)Cc2cccc(C(=O)NCCOCCOC(=O)n3cc(-c4cnc5nnn([C@@H](C)c6ccc7nccn7c6)c5n4)cn3)c2)c(O)cc1O` [OZD-MET 04, 2-{2-[(3-{[1-[2,4-dihydroxy-5-isopropylphenyl]-N-methylformamido]methyl}phenyl)formamido]ethoxy}ethyl 4-[3-(1-{imidazole[1,2-a]pyridin-6-yl}ethyl)-[1,2,3]triazolo[4,5-b]pyrazin-5-yl]pyrazole-1-carboxylate], the IC50 in the experiment on H1437 cells (Homo sapiens, NCI-H1437, 72 h) came out at 4.65 µM; in the experiment with H596 cells (Homo sapiens, NCI-H596, 72 h) it was 4.18 µM. For the same compound, in the experiment on c-MET (total form) [1], the “c-MET degradation H596” value is listed as 2 (10% < degradation < 50%: 2). For the same compound, in the experiment with c-MET (total form) [2], the “c-MET degradation H1437” value was 3 (degradation < 10%: 3).
For `CC(C)c1cc(C(=O)N(C)Cc2cccc(C(=O)NCCOCCOC(=O)Nc3ccc4nccc(Oc5ccc(NC(=O)C6(C(=O)Nc7ccc(F)cc7)CC6)cc5)c4c3)c2)c(O)cc1O` [OZD-MET 06, 2-{2-[(3-{[1-(2,4-dihydroxy-5-isopropylphenyl)-N-methylformamido]methyl}phenyl)formamido]ethoxy}ethyl N-[4-(4-{1-[(4-fluorophenyl)carbamoyl]cyclopropanamido}phenoxy)quinolin-6-yl)carbamate], the half-maximal inhibitory concentration (IC50) with H1437 cells (Homo sapiens, NCI-H1437, 72 h) was 4.25 µM; with H596 cells (Homo sapiens, NCI-H596, 72 h), 3.38 µM. In addition, the “c-MET degradation H596” value in the experiment with c-MET (total form) [1] is listed as 2 (10% < degradation < 50%: 2). Also, the “c-MET degradation H1437” value in the experiment with c-MET (total form) [2] is reported as 2 (10% < degradation < 50%: 2).
On to `CC(C)c1cc(C(=O)N(C)Cc2ccc(C(=O)NCCCCC(=O)Nc3ccc4nccc(Oc5ccc(NC(=O)C6(C(=O)Nc7ccc(F)cc7)CC6)cc5)c4c3)cc2)c(O)cc1O` [OZD-MET 07, N′1-{4-[(6-{5-[(4-{[1-(2,4-dihydroxy-5-isopropylphenyl)-N-methylformamido]methyl}phenyl)formamido]pentanamido}quinolin-4-yl)oxy]phenyl}-N1-(4-fluorophenyl)cyclopropane-1,1-dicarboxamide], for which the half-maximal inhibitory concentration (IC50) was determined as 3.21 µM with H1437 cells (Homo sapiens, NCI-H1437, 72 h) and 3.43 µM with H596 cells (Homo sapiens, NCI-H596, 72 h). Besides, the “c-MET degradation H596” value in the experiment with c-MET (total form) [1] is reported as 1 (50% < degradation: 1). Also, the “c-MET degradation H1437” value in the experiment on c-MET (total form) [2] is 2 (10% < degradation < 50%: 2).
For `CC(C)c1cc(C(=O)N(C)Cc2cccc(C(=O)NCCOCCOC(=O)Nc3ccc(-c4cnc5ncc(Cc6ccc7ncccc7c6)n5n4)cc3F)c2)c(O)cc1O` [OZD-MET 08, 2-{2-[(3-{[1-(2,4-dihydroxy-5-isopropylphenyl)-N-methylformamido]methyl}phenyl)formamido]ethoxy}ethyl N-{2-fluoro-4-[7-(quinolin-6-ylmethyl)imidazo[1,2-b][1,2,4]triazin-2-yl]phenyl}carbamate], in that order: 4.34 µM, 3.08 µM, 1 (50% < degradation: 1) and 2 (10% < degradation < 50%: 2).
As for `CC(C)c1cc(C(=O)N(C)Cc2ccc(C(=O)NCCCCC(=O)Nc3ccc(-c4cnc5ncc(Cc6ccc7ncccc7c6)n5n4)cc3F)cc2)c(O)cc1O` [OZD-MET 09, N-[(4-{[4-({2-fluoro-4-[7-(quinolin-6-ylmethyl)imidazo[1,2-b][1,2,4]triazin-2-yl]phenyl}carbamoyl)butyl]carbamoyl}phenyl)methyl]-2,4-dihydroxy-5-isopropyl-N-methyl-benzamide], the IC50 in the experiment with H1437 cells (Homo sapiens, NCI-H1437, 72 h) was 3.11 µM; in the experiment with H596 cells (Homo sapiens, NCI-H596, 72 h) it was 4.18 µM. Also, the “c-MET degradation H596” value in the experiment with c-MET (total form) [1] is listed as 2 (10% < degradation < 50%: 2). In the experiment with c-MET (total form) [2], the “c-MET degradation H1437” value is listed as 1 (50% < degradation: 1).
Consider `CC(C)c1cc(C(=O)N(C)Cc2cccc(C(=O)NCCOCCOC(=O)N3CCC(COc4cnc(-c5cccc(Cn6nc(-c7cccc(C#N)c7)ccc6=O)c5)nc4)CC3)c2)c(O)cc1O` [OZD-MET 10, 2-{2-[(3-{[1-(2,4-dihydroxy-5-isopropylphenyl)-N-methylformamido]methyl}phenyl)formamido]ethoxy}ethyl 4-({[2-(3-{[3-(3-cyanophenyl)-6-oxopyridazin-1-yl]methyl}phenyl)pyrimidin-5-yl]oxy}methyl)piperidine-1-carboxylate], for which the IC50 in the experiment with H1437 cells (Homo sapiens, NCI-H1437, 72 h) was 3.29 µM; with H596 cells (Homo sapiens, NCI-H596, 72 h), 3.19 µM. The “c-MET degradation H596” value in the experiment on c-MET (total form) [1] is 1 (50% < degradation: 1). In the experiment with c-MET (total form) [2], the “c-MET degradation H1437” value was 1 (50% < degradation: 1).

The record behind these values is US20260207754A1, “MET PROTEIN DEGRADATION INDUCING COMPOUND” (ONCOZEN CO., LTD., priority 2022, published 2026).
